Activity calls are given as the source filed them.
Legend:
[1] = target: Cytochrome P450 2C9 (Homo sapiens, UniProt P11712)
[2] = target: Cytochrome P450 3A4 (Homo sapiens, UniProt P08684);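 note: CYP3A4 tested as one member of a cytochrome P450 panel screen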
[3] = target: T1, Streptokinase A (Streptococcus pyogenes serotype M1, UniProt P10520); assay: S. pyogenes streptokinase expression inhibitors, potency, dose response, plasminogen activation absorbance, OD405 (AID 1914); format: functional, Streptococcus pyogenes M1 GAS;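 note: secreted streptokinase activity via plasminogen activation per viability signal from cell pellet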
T1 sequence (P10520 whole entry): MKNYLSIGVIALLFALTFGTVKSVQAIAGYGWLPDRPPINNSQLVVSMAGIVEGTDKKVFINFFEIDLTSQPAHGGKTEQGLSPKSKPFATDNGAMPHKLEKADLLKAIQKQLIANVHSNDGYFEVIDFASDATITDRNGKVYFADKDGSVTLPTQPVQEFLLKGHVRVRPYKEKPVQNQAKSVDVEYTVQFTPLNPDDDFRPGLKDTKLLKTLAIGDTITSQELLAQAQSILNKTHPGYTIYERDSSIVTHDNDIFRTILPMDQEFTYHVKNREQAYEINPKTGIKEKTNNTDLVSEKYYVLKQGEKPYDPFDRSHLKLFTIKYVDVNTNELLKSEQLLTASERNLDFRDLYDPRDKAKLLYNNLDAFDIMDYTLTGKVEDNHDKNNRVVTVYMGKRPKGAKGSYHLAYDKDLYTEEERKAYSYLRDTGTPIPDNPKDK

[4] = system: Streptococcus sp. 'group A'; assay: growth inhibition of control SK(-) GAS strain, dose response, counter-screen for streptokinase expression inhibitor project, luminescence, kanamycin, BacTiterGlo, confirmation (AID 1900); format: functional, organism-based
[5] = system: Streptococcus; assay: Group A Streptococcus viability loss, dose response, counter-screen for streptokinase expression inhibitor project, luminescence, BacTiterGlo (AID 1915); format: functional, organism-based;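 note: potency for reduction of bacterial viability or growth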

Chain of Cytochrome P450 3A4 (P08684 whole entry): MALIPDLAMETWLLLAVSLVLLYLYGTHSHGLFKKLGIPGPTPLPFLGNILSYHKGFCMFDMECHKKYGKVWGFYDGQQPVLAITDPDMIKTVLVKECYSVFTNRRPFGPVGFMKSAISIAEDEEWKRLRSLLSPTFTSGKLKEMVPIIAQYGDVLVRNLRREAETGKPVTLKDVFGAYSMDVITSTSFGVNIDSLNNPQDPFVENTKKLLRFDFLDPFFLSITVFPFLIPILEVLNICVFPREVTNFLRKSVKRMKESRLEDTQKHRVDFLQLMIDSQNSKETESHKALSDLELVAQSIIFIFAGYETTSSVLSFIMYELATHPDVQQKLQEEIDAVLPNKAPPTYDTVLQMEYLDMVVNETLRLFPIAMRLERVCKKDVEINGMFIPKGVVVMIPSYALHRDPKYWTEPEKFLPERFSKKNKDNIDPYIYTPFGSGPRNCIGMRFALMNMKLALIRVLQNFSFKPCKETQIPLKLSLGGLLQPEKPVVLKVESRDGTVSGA
Chain of Cytochrome P450 2C9 (P11712 whole entry): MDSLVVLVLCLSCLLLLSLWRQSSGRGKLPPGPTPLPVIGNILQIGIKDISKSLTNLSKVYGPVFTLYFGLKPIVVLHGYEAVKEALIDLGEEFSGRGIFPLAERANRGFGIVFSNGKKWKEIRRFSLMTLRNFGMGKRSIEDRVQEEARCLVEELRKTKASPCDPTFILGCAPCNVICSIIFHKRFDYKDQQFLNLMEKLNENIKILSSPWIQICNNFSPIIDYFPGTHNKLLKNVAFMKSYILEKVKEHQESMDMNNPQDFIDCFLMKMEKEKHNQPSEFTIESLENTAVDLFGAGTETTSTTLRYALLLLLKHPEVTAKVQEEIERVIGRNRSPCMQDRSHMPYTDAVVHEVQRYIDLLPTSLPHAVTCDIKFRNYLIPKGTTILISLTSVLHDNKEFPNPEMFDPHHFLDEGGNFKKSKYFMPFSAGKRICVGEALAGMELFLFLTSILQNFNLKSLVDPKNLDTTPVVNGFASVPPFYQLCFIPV

For COc1ccccc1CNc1ncncc1-c1ccoc1, the AC50 [1] was 1.58 µM (inconclusive) and the AC50 [2] was 0.794 µM (inconclusive).
C[C@@]12CC[C@H]3[C@@H](CC[C@@H]4C[C@H]5S[C@H]5C[C@]43C)[C@H]1CC[C@H]2O was tested, and the AC50 [2] was 6.31 µM (inconclusive).
With Cc1ccc(N2C(=O)C3N=NN(CC(=O)N4N=C(c5cccc6ccccc56)CC4c4ccccc4)C3C2=O)cc1 (centres undefined) the EC50 [3] was 35.7 µM (active), the EC50 [4] was 31.4 µM (active) and the EC50 [5] was > 150 µM (not active).
In the case of CCCC(NC(=S)NCC1CCCO1)C12CC3CC(CC(C3)C1)C2 (centres undefined), the EC50 [3] is reported as 18 µM (active).
With COc1cccc(-c2cncnc2NCc2ccc(OC)cc2OC)c1 the AC50 [1] was 1 µM (inconclusive).
O=C(CSc1nc2ccc([N+](=O)[O-])cc2s1)c1ccc2ccccc2c1 was tested, and the AC50 [2] was 3.98 µM (inconclusive).
In the case of COc1cccc(NCc2cc(=O)oc3cc(C)c(O)cc23)c1, the EC50 [4] is reported as 1.83 µM (active) and the EC50 [5] is reported as 2.79 µM (active).
For O=C(Nc1ccccc1Sc1ccccc1)c1ccccc1F, the EC50 [3] was > 50 µM (not active) and the EC50 [5] was > 150 µM (not active).
For O=C(COC(=O)c1ccccc1)Nc1ccccc1Sc1ccccc1, the EC50 [3] was 28.8 µM (active), the EC50 [4] was > 150 µM (not active) and the EC50 [5] was > 150 µM (not active).
CC(C)CN1CCC2(CC1)CCN(C(=O)c1ccncc1)CC2 was tested, and the AC50 [2] was 15.8 µM (inconclusive).
In the case of Cc1nc2cnc(N3CCN(C)CC3)nc2n(Cc2ccc(F)cc2)c1=O, the AC50 [2] is reported as 20 µM (inconclusive).
With O=c1c(-c2cccs2)nc2cnc(Oc3ccccc3)nc2n1Cc1cccs1 the AC50 [1] was 1.58 µM (inconclusive) and the AC50 [2] was 15.8 µM (inconclusive).
In the case of CC(Oc1ccc(Cl)cc1Cl)C(=O)Nc1ccc(S(=O)(=O)Nc2cnc3ccccc3n2)cc1 (centres undefined), the EC50 [3] is reported as 3.69 µM (active), the EC50 [4] is reported as 2.45 µM (active) and the EC50 [5] is reported as 7.38 µM (active).
With C/C(=N\NC(=O)c1[nH]c2c([N+](=O)[O-])cc(C)cc2c1-c1ccccc1)c1cccnc1 the AC50 [1] was 8.91 µM (inconclusive).
COc1ccc(C2CC(c3cccs3)=NN2C(=O)CSc2nc(O)c3cnn(-c4ccccc4)c3n2)cc1 (centres undefined) was tested, and the EC50 [4] was 3 µM (active) and the EC50 [5] was 5.77 µM (active).
With CN(C)c1ccc(-c2noc(C3CCN(S(=O)(=O)c4cccc(C(=O)O)c4)CC3)n2)cc1 the AC50 [1] was 15.8 µM (inconclusive).
CC(C)CN1CCCC2(CCN(C(=O)c3cccn3C)CC2)C1 was tested, and the AC50 [2] was 12.6 µM (inconclusive).
For COc1ccccc1CNc1ncncc1-c1ccccc1OC, the AC50 [1] was 1.58 µM (inconclusive).
With CCCC(N=C(S)NCC1CCCO1)C12CC3CC(CC(C3)C1)C2 (centres undefined) the EC50 [4] was 12.3 µM (active) and the EC50 [5] was > 150 µM (not active).
C1=C(CN2CCOCC2)COc2c1cccc2OC[C@@H]1CNCCO1 was tested, and the AC50 [2] was 39.8 µM (inconclusive).
C[C@H]1CC[C@H]2C(=O)N3[C@H](c4ccc(Br)cc4)[C@@H](C)CC[C@H]3C(=O)N2[C@@H]1c1ccc(Br)cc1 was tested, and the AC50 [2] was 3.98 µM (inconclusive).
CCNC(C)(C)[C@@H](SS)c1ccc(Br)cc1 was tested, and the AC50 [1] was 6.31 µM (inconclusive) and the AC50 [2] was 5.01 µM (inconclusive).
With Clc1ccccc1-c1cncnc1NCCc1cnc[nH]1 the AC50 [1] was 1 µM (inconclusive).
For CCCCOc1cc(C[C@@H]2CNC(=O)N2)ccc1OC, the AC50 [2] was 15.8 µM (inconclusive).
CN(C)c1cc(-c2cccc(NS(C)(=O)=O)c2)ncn1 was tested, and the AC50 [2] was 25.1 µM (inconclusive).
In the case of CC(NC(=O)CN1CCCC1)C12CC3CC(CC(C3)C1)C2 (centres undefined), the AC50 [2] is reported as 14.1 µM (inconclusive).
COc1ccc2c3c1O[C@@H]1C(=O)CC[C@@]4(O)[C@@H](C2)N(CC2CC2)CC[C@]314 was tested, and the AC50 [2] was 25.1 µM (inconclusive).
In the case of O=C(c1ccco1)N(CCC(c1ccccc1)c1ccco1)Cc1ccco1 (centres undefined), the AC50 [2] is reported as 11.2 µM (inconclusive).
With COCCOC(=O)C1=C(C)NC(=O)N(C(C)=O)C1c1ccc(Cl)cc1 (centres undefined) the AC50 [2] was 17.8 µM (inconclusive).
For Cc1ccc(NC(=O)OCc2cn(-c3ccc(Cl)cc3)nn2)cc1, the AC50 [2] was 7.94 µM (inconclusive).
O=C(Nc1cc(C(F)(F)F)ccc1-n1cncn1)c1ccc(Br)cc1 was tested, and the AC50 [1] was 3.16 µM (inconclusive).

— ChEMBL document CHEMBL1201862, “PubChem BioAssay data set” (2004)
